# Read-outs that look alike come from different tables or passages of the source.
# How the values were obtained:
# [1] = test system: COL7A1 mRNA in RDEB_L1 and RDEB_L5 cells; test: Real-time qPCR of COL7A1 mRNA; type: cell-based, human; conditions: 24 h, 20 ng/mL TGFβ2
# Method: For real-time qPCR, 15,000 RDEB keratinocytes or normal human epidermal keratinocytes were plated in a 96-well cell culture plate in 80 µL of supplemented KGM medium without GA-1000 and containing 20 ng/mL of TGFβ2 for RDEB keratinocytes, and cells were incubated overnight at 37 °C and 5%CO2. The day after, cells were treated with 20 µL of test compounds prepared 5 × in supplemented KGM without GA-100, for 24 h at 37 °C and 5% CO2. For the mRNA extraction, the medium was removed, cells were washed with PBS, and conserved at -80 °C until the total RNA extraction.
# RNA extraction was conducted using the RNeasy 96 Kit (4) (Qiagen 74181) following the manufacturer’s instructions. Total RNA was recovered in 50 µL of RNase-free water and the yield of extracted RNA was quantified using a NanoDrop 2000 Spectrophotometer (ThermoFisher). Purified RNA was stored at -80 °C until RT-qPCR.
# Real time-qPCR was performed by using the iTaq Universal Probes One-Step Kit, (cat. 1725140, Bio-Rad) and according to the manufacturer’s instructions. […] RT-qPCR was performed to quantify the COL7A1 mRNA (exon 64) expression.
# For COL7A1 quantitative gene expression, human GAPDH was used as the endogenous control. Results were analyzed with the QuantStudio Real-Time PCR Software.
# JAK2 = JAK2 (Homo sapiens, UniProt O60674); test: Enzymatic JAK2 kinase activity; type: biochemical; conditions: dose-response curves; read-out: IC50 ± SD, JAK2
# Method: (§1) Enzymatic Syk kinase activity assays were performed as previously described. Enzymatic activity of JAK1, JAK2, JAK3, and Tyk kinases was evaluated as previously described.
# Tyk2 = Tyk2 (Homo sapiens, UniProt P29597); test: Enzymatic Tyk2 kinase activity; type: biochemical; conditions: dose-response curves; read-out: IC50 ± SD, Tyk2
# Method: as §1
# JAK1 = JAK1 (Homo sapiens, UniProt P23458); test: Enzymatic JAK1 kinase activity; type: biochemical; conditions: dose-response curves; read-out: IC50 ± SD, JAK1
# Method: as §1
# BZD = test: Selectivity panel (Eurofins): benzodiazepine receptor BZD; type: binding; conditions: for % inhibition, BZD: n = 1, duplicate
# A2A = target: T1, A2A (Homo sapiens, UniProt P29274); test: Selectivity panel (Eurofins): A2A adenosine receptor; type: binding
# T1 construct: Eurofins Pharma Discovery Services
# [2] = test system: total C7 in HEK293^R578X cells; test: AlphaLISA quantification of total C7 in recombinant HEK293^R578X cells; type: cell-based, human; conditions: for EC50: Homo sapiens, total C7 AlphaLISA, 48 h, relative EC50, mean ± SD, read-out: Increase in C7 levels EC50
# Method: The AlphaLISA assay was developed in-house by using the biotin-conjugated rabbit polyclonal antibody anti-C7 (LSBio LS-298147) and conjugating the acceptor beads (PerkinElmer 6772001) to a monoclonal anti-Collagen type VII antibody produced in mouse, clone LH7.2 (Thermo MA5-13,432). Formulation of the mAb clone LH7.2 was exchanged to PBS and concentrated 5 × by using Amicon® Ultra-0.5 centrifugal filters up to 1 mg/ml. The conjugation procedure was carried out according to the protocol provided by PerkinElmer.
# For compound treatment in RDEB patient-derived transformed keratinocytes, 5,000 cells were plated in 20 µL of supplemented KGM media containing 20 ng/mL TGFβ2 (SIGMA GF113) without GA-1000 in 384-well cell culture plates (Greiner 781098). The day after, 5 µL of test compounds prepared 5 × in supplemented KGM without GA-1000 were added over cells and incubated for 48 h at 37 °C and 5% CO2. For compound treatment in HEK293^R578X, 10,000 cells were plated in 20 μL of DMEM (High Glucose, 2 mM L-Glutamine, sodium pyruvate, and FBS 10%) in 384-well cell culture plates (Greiner 781,098,). The day after, 5 μL of test compounds prepared 5 × in DMEM complete medium were added over cells and incubated for 48 h at 37 °C and 5% CO2.
# After the treatment process, 2.5 µL of RIPA buffer 10 x (Abcam ab156034) were added over the […] of cells for 20 min at room temperature to obtain a complete cell lysis. Then, 2 μL of sample (i.e., cell lysate with supernatant) were transferred to the AlphaLISA plate (PerkinElmer 6,059,340) containing […] of antibodies mixture ([…] of acceptor Beads-Ab and […] of biotin-rAb) prepared in AlphaLISA buffer 1 x (PerkinElmer AL00F). The reaction was incubated for 90 min at room temperature. Finally, 10 μL of […] of donor beads (PerkinElmer 6760002,) were added to the reaction under subdued light, mixed gently, and incubated for 3 h at room temperature. AlphaLISA signal was detected with an Envision microplate reader (Perkin Elmer) using the following setting: Filter: AlphaScreen, Excitation time: 180 ms, Integration time: 300 ms.
# Statistical analyses were performed using GraphPad Prism v. 7.04 (La Jolla, California). Results are shown as mean ± SD of experimental replicates. Dose–response curves to assess compound treatment effect were plotted in a four-parameter logistic model. Relative EC50, representing the total drug concentration producing a 50% effect, was calculated in the four-parameter logistic equation. Comparisons of collagen protein and mRNA expression in different experimental conditions were made using ANOVA, followed by a post hoc test. statistical significance was considered with p values < 0.05.
# PDE4D2 = target: T2, PDE4D2 (Homo sapiens, UniProt Q08499); test: Selectivity panel (Eurofins): PDE4D2; type: biochemical; conditions: n = 1, duplicate
# T2 construct: Eurofins Pharma Discovery Services
# Method: Selectivity was evaluated at Eurofins Pharma Discovery Services at 3 µM, 10 µM, and 30 µM in duplicate using a selection of 84 representative kinases and 44 GPCRs, transporters, nuclear receptors (NR), enzymes, and ion channels.
# [3] = at concentrations of 3 and 10 µM
# T1 sequence (P29274 whole entry): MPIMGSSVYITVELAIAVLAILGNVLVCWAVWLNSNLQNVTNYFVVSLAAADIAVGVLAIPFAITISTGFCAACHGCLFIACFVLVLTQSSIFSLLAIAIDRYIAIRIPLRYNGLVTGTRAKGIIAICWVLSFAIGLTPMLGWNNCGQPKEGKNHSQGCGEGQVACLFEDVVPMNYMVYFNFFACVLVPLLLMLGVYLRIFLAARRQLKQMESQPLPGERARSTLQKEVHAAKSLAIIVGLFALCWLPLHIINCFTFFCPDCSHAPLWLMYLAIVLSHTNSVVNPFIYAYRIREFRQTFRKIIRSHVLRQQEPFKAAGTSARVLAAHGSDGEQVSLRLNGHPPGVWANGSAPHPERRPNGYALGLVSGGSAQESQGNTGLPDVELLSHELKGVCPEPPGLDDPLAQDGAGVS
# T2 sequence (Q08499 303-809 limits assumed): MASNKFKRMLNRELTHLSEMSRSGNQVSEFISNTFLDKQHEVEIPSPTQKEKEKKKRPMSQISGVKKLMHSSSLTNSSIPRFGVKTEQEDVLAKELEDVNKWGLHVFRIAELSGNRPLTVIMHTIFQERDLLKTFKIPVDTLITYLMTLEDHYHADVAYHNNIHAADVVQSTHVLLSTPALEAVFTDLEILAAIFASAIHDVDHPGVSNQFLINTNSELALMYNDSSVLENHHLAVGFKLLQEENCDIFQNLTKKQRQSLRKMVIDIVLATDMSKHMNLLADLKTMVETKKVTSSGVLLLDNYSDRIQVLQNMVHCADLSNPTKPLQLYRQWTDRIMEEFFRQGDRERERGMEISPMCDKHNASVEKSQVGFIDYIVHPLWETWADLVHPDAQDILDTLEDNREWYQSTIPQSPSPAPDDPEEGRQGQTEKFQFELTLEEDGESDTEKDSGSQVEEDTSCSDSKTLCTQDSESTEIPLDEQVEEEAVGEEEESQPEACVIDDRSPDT
# JAK1, sequence (P23458 whole entry, species assumed): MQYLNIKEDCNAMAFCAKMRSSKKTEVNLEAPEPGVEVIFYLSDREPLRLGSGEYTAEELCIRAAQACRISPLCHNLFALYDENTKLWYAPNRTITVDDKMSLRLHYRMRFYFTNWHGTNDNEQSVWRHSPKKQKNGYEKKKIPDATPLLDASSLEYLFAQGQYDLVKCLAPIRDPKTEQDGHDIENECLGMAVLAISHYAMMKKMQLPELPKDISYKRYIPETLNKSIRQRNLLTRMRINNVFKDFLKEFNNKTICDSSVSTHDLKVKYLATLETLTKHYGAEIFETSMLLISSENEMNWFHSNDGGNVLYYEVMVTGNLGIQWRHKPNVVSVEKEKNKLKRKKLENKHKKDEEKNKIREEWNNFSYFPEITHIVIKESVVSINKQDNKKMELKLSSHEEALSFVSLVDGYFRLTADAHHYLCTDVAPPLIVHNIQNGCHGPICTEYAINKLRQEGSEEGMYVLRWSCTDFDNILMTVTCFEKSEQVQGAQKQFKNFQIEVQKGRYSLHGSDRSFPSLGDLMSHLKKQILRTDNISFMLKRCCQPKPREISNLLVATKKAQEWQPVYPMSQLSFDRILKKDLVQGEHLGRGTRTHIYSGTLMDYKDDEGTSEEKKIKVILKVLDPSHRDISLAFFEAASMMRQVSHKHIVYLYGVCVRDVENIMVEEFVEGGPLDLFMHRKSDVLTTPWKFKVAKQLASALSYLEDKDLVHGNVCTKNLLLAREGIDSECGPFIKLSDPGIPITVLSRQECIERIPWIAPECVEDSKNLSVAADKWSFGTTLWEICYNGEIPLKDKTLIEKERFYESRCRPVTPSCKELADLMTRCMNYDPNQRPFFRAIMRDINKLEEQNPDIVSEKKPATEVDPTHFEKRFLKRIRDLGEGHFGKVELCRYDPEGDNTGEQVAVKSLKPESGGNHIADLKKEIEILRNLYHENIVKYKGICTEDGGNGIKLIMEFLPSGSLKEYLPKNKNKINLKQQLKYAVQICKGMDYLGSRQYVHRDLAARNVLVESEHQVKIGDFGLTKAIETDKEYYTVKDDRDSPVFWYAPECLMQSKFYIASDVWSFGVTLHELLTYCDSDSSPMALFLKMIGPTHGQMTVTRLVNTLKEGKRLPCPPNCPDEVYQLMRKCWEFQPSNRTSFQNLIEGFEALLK
# Tyk2, sequence (P29597 whole entry, species assumed): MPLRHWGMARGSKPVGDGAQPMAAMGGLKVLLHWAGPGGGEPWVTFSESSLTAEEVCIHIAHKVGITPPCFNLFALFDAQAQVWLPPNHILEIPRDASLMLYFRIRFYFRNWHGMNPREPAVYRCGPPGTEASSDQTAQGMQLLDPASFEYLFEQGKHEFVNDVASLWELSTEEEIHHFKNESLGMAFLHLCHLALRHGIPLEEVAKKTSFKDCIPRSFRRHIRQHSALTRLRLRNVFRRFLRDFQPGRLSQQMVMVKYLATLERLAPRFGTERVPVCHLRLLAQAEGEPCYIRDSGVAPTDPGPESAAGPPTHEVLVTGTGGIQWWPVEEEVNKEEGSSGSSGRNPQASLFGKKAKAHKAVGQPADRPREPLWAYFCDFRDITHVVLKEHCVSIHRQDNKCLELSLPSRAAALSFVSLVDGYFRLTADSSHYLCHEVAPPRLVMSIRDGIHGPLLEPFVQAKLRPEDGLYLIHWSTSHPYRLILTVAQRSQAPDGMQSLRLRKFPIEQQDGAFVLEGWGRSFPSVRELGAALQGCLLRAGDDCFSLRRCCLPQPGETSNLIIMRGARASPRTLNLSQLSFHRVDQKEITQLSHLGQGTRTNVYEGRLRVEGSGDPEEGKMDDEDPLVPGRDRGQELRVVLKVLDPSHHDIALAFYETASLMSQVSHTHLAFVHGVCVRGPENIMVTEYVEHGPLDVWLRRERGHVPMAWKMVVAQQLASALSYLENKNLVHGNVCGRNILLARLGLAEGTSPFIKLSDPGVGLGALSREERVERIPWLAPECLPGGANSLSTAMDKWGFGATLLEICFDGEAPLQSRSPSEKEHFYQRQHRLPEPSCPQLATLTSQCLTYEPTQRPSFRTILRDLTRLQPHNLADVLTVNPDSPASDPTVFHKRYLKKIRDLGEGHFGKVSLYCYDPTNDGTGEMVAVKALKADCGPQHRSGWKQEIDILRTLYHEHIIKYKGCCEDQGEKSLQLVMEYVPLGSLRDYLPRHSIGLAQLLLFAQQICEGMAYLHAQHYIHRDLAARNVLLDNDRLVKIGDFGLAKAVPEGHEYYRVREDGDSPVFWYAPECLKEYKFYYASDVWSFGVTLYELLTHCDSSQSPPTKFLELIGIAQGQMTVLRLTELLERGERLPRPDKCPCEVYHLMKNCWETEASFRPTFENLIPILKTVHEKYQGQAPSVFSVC
# JAK2, sequence (O60674 whole entry, species assumed): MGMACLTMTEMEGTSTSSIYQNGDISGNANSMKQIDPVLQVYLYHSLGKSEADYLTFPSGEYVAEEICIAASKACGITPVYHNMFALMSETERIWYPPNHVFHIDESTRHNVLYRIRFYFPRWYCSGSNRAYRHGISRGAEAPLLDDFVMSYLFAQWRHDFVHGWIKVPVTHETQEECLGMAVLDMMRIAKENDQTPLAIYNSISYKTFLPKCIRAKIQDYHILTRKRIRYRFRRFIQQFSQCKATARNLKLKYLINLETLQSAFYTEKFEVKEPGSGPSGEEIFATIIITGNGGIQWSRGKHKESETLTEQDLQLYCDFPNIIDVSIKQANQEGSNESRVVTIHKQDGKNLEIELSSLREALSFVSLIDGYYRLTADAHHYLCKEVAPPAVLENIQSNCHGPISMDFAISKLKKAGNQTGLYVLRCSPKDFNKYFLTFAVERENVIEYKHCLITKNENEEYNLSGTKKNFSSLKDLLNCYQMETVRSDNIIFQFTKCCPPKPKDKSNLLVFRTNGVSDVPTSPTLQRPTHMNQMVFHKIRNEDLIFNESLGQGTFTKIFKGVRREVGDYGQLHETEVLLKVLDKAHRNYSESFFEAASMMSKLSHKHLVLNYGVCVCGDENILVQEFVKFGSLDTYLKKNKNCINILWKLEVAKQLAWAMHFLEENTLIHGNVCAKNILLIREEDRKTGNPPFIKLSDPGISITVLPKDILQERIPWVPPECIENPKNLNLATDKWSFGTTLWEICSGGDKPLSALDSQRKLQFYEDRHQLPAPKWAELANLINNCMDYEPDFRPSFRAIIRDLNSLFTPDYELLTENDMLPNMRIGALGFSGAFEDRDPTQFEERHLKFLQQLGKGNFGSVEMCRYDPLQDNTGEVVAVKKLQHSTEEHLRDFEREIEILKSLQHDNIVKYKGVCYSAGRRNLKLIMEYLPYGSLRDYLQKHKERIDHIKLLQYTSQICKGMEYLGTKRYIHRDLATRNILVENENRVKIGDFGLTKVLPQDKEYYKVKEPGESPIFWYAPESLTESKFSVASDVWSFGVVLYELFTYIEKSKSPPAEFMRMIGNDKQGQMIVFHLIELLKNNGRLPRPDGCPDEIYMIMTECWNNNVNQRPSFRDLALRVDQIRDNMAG
Structure (SMILES),levels of COL7A1 mRNA (qPCR) [1],IC50 (JAK2) [µM],IC50 (Tyk2) [µM],IC50 (JAK1) [µM],"% inhibition, BZD (BZD; at 3 μM) [%]","% inhibition, BZD (BZD; at 10 μM) [%]","% inhibition, BZD (BZD; at 30 μM) [%]",antagonism/inhibition of benzodiazepine receptor BZD (BZD; [3]) [%],"inhibition at 10 µM (A2A; Table 5, read-out: Selectivity % inhibition, A2A) [%]","inhibition at 3 µM (A2A; at 3 μM, n = 1, duplicate, read-out: % inhibition, A2A) [%]","inhibition at 10 µM (A2A; n = 1, duplicate, read-out: % inhibition, A2A) [%]","inhibition at 30 µM (A2A; at 30 μM, n = 1, duplicate, read-out: % inhibition, A2A) [%]",antagonism/inhibition of A2A adenosine receptor (A2A; [3]) [%],EC50 [2] [µM],"Increase in C7 levels Emax, % vs baseline ([2]; at 100 µM) [at 100 % vs baseline]",inhibition at 3 µM (PDE4D2; at 3 μM) [%],inhibition at 10 µM (PDE4D2; at 10 μM) [%],inhibition at 30 µM (PDE4D2; at 30 μM) [%],"Increase in C7 levels Emax, % vs baseline ([2]; at 4100 µM) [at 4100 % vs baseline]"
NC(=O)Cn1ccc2ccc(-c3cnc(N)c(C(=O)NC4C5CC6CC4CC(O)(C6)C5)n3)cc21 (stereo not drawn) [Compound 1],TGFβ2 was required for full upregulation,0.12 ± 0.06,0.03 ± 0.0006,0.44 ± 0.16,–,–,–,–,–,–,–,–,–,–,–,–,–,–,–
C#Cc1cc(-c2ccncc2)c(-c2cccc(F)c2)nc1N [Compound 7],did not result in an increase in C7 mRNA levels,–,–,–,48,73,88,≥ 50,96,101,100,101,≥ 50,60 ± 4.6,96 ± 35,16,34,61,–
"CNC(C)C1CCC(N)C(OC2C(N)CC(N)C(OC3OCC(C)(O)C(NC)C3O)C2O)O1 (stereo not drawn) [Gentamicin, reference compound]",–,–,–,–,–,–,–,–,–,–,–,–,–,4500 ± 2900,–,–,–,–,89 ± 17

# From PMC11329504, “Identification of novel small molecule-based strategies of COL7A1 upregulation and readthrough activity for the treatment of recessive dystrophic epidermolysis bullosa” (Scientific Reports, 2024)
